Test results: patent publication US20210147811A1, “METHODS FOR IN VITRO EXPANSION OF ADULT TISSUE STEM CELLS” (CEDARS-SINAI MEDICAL CENTER, priority 2018, published 2021)

How the values were obtained:
distal progenitor cells = test: Differentiation potential of distal progenitors after 3D organoid culture with inhibitors; type: cell-based; conditions: 14 days with Pifithrin-alpha, ROCKi and SB431542, then 7 days without inhibitors, PDPN and SPC staining
Procedure: FIG. 16. […] Distal progenitor cells were cultured as 3D organoids for 14 days in presence of Pifithrin-alpha, ROCKi and SB431542 followed by culture for 7 days in media without all three inhibitors. […] DAPI (blue) is a nuclear stain.
Distal progenitor cells were cultured as 3D organoids for 14 days in presence of Pifithrin-alpha, ROCKi and SB431542 followed by culture for 7 days in media without all three inhibitors. […] Addition of ROCKi (in presence of SB431542) increases the colony forming efficiency of freshly isolated club cells (regional stem cells which maintain certain cell types in the bronchiolar epithelium) whereas addition of Pifithrin alpha (in presence of SB431542) increases the size of Scgb1a1-derived organoids. Addition of both ROCKi (in presence of SB431542) increases the colony forming efficiency of freshly isolated murine proximal total epithelial cells (isolated from the murine trachea).

lung stem cells = test: In vitro organoid assays of clonal expansion of lung stem cells; type: cell-based; conditions: combination of p53 inhibitor with ROCK inhibitor (and TGFb inhibitors)
Text: Methods have been developed for expansion of stem cells using a combination of irradiated NIH-3T3 fibroblasts and a ROCK inhibitor (Y27632). […] Preliminary studies by the Inventors have shown that pharmacologic inhibition of p53 results in greater clonal expansion of lung stem cells compared to use of ROCK inhibitor Y27632 alone. Effects of combined treatment with Pifithrin-α and Y27632 are additive. Future studies will determine reversibility of Pifirthrin-α effects on stem cell expansion and differentiation. This includes: 1) validating that the observed increase in clonogenic potential of lung stem cells is the result of stem cell expansion, 2) application of the aforementioned pharmacologic intervention during in vitro stem cell expansion enhances their viability following cryopreservation, 3) that application of the aforementioned pharmacologic intervention during in vitro stem cell expansion enhances to functionally engraft into lung tissue following orthotopic lung transplantation, 4) that stem cells expanded under these conditions retain full capacity for differentiation into specialized lung epithelial cell types and 5) that established culture conditions can be used to expand human lung stem cells. […]

Q: Which differentiation potential (distal progenitor cells; listed as Pifithrin alpha) does the source give for `Cc1ccc(C(=O)Cn2c3c(sc2=N)CCCC3)cc1` [Pifithrin α] here?
A: do not alter

Q: And the differentiation potential (distal progenitor cells; listed as Pifithrin-alpha)?
A: did not alter

Q: What about the “effect of combined use on clonal expansion / clonogenic potential of lung stem cells” value (lung stem cells) of the same compound?
A: additive
